Reference: US20130190289A1, “COMPOUNDS AND METHODS FOR THE TREATMENT OR PREVENTION OF FLAVIVIRUS INFECTIONS” (priority 2010, published 2013)
Read-outs that look alike come from different tables or passages of the source.

Assays:
[1] = system: HCV replicon (genotype 1b) in Huh7 cell line ET; assay: microbe, parasite or virus in culture; type: cell-based, HCV genotype 1b; conditions: Hepatitis C virus
[2] = [3H]Thymidine incorporation assay (cell toxicity); conditions: human
[3] = Huh-7, read-out: HCV-Replicon-(Luci-ET) 1b_IC50
[4] = Huh-7, 96 h, read-out: HCV-Replicon (Luci-ET)-1b_IC50

## CO[C@@H](C)[C@@H](C(=O)N(C)C)N(c1cc(C#CC(C)(C)C)sc1C(=O)O)C(=O)[C@H]1CC[C@H](C)CC1 [Compound 66, 5-(3,3-Dimethylbut-1-ynyl)-3-[[(1S,2S)-1-(dimethylcarbamoyl)-2-methoxy-propyl]-(trans-4-methylcyclohexanecarbonyl)amino]thiophene-2-carboxylic acid]
[1]; [3]
  IC50: < 100 nM
[2]
  CC50 at 72 h: > 100000 nM

## CN1CCC[C@H](N(c2cc(C#CC(C)(C)C)sc2C(=O)O)C(=O)[C@H]2CC[C@H](C)CC2)C1=O [Compound 117, 5-(3,3-dimethylbut-1-yn-1-yl)-3-(trans-4-methyl-N—((S)-1-methyl-2-oxopiperidin-3-yl)cyclohexanecarboxamido)thiophene-2-carboxylic acid]
[1]; [3]
  IC50: < 100 nM
[2]
  CC50 at 72 h: > 100000 nM

## CC(C)(C)C#Cc1cc(N(CC(=O)N2CCOCC2)C(=O)c2ccc(Cl)cc2)c(C(=O)O)s1 [Compound 123, 3-[(4-chlorobenzoyl)-(2-morpholino-2-oxo-ethyl)amino]-5-(3,3-dimethylbut-1-ynyl)thiophene-2-carboxylic acid]
[1]; [4]
  IC50: < 100 nM
[2]
  CC50 at 72 h: > 100000 nM

## CO[C@H](C)[C@@H](C(=O)N1CCOCC1)N(c1cc(C#CC(C)(C)C)sc1C(=O)O)C(=O)[C@H]1CC[C@H](C)CC1 [Compound 58, 5-(3,3-Dimethylbut-1-ynyl)-3-[[(1S,2R)-2-methoxy-1-(morpholine-4-carbonyl)propyl]-(trans-4-methylcyclohexanecarbonyl)amino]thiophene-2-carboxylic acid]
[1]; [3]
  IC50: < 100 nM
[2]
  CC50 at 72 h: > 100000 nM

## C[C@@H](CC(=O)N(C)C1CCN(C)CC1)N(c1cc(C#CC(C)(C)C)sc1C(=O)O)C(=O)[C@H]1CC[C@H](C)CC1 [Compound 113, 5-(3,3-Dimethylbut-1-ynyl)-3-[(trans-4-methylcyclohexanecarbonyl)-[(1S)-1-methyl-3-[methyl-(1-methyl-4-piperidyl)amino]-3-oxo-propyl]amino]thiophene-2-carboxylic acid]
[1]; [3]
  IC50: < 100 nM
[2]
  CC50 at 72 h: > 100000 nM

## CC(CC(=O)N(C)C)N(c1cc(C#CC(C)(C)C)sc1C(=O)O)C(=O)[C@H]1CC[C@H](C)CC1 (relative stereo) [Compound 99, 3-[[3-(Dimethylamino)-1-methyl-3-oxo-propyl]-(trans-4-methylcyclohexanecarbonyl)amino]-5-(3,3-dimethylbut-1-ynyl)thiophene-2-carboxylic acid]
[1]; [3]
  IC50: < 100 nM
[2]
  CC50 at 72 h: 10000 to 100000 nM

## CN1CCOC[C@H](N(C(=O)c2ccc(Cl)cc2Cl)c2cc(C#CC(C)(C)C)sc2C(=O)O)C1=O [Compound 147, (S)-5-(3,3-Dimethylbut-1-ynyl)-3-[(2,4-dichlorobenzoyl)-N-(4-methyl-5-oxo-1,4-oxazepan-6-yl)amino]thiophene-2-carboxylic acid]
[1]; [4]
  IC50: 100 to 1000 nM
[2]
  CC50 at 72 h: > 100000 nM

## C[C@@H](O)[C@@H](C(=O)N(C)C)N(c1cc(C#CC(C)(C)C)sc1C(=O)O)C(=O)[C@H]1CC[C@H](C)CC1 [Compound 59]
[1]; [3]
  IC50: < 100 nM
[2]
  CC50 at 72 h: > 100000 nM

## CCOC[C@@H](C(=O)N1CCOCC1)N(c1cc(C#CC(C)(C)C)sc1C(=O)O)C(=O)[C@H]1CC[C@H](C)CC1 [Compound 87, 5-(3,3-Dimethylbut-1-ynyl)-3-[[(1S)-1-(ethoxymethyl)-2-morpholino-2-oxo-ethyl]-(trans-4-methylcyclohexanecarbonyl)amino]thiophene-2-carboxylic acid]
[1]; [3]
  IC50: < 100 nM
[2]
  CC50 at 72 h: > 100000 nM

## C[C@@H](C(=O)N1CC[C@@H](O)C1)N(c1cc(C#CC(C)(C)C)sc1C(=O)O)C(=O)[C@H]1CC[C@H](C)CC1 [Compound 32, 5-(3,3-Dimethylbut-1-ynyl)-3-[[(1S)-2-[(3R)-3-hydroxypyrrolidin-1-yl]-1-methyl-2-oxo-ethyl]-(trans-4-methylcyclohexanecarbonyl)amino]thiophene-2-carboxylic acid]
[1]; [3]
  IC50: < 100 nM
[2]
  CC50 at 72 h: > 100000 nM

## CC[C@@H](C(=O)N(C)CCO)N(c1cc(C#CC(C)(C)C)sc1C(=O)O)C(=O)[C@H]1CC[C@H](C)CC1 [Compound 77, 5-(3,3-Dimethylbut-1-ynyl)-3-[[(1S)-1-[2-hydroxyethyl(methyl)carbamoyl]propyl]-(trans-4-methylcyclohexanecarbonyl)amino]thiophene-2-carboxylic acid]
[1]; [3]
  IC50: < 100 nM
[2]
  CC50 at 72 h: > 100000 nM

## Cc1ccc(C(=O)N(CC(=O)N2CCOCC2)c2cc(C#CC(C)(C)C)sc2C(=O)O)cc1 [Compound 125, 5-(3,3-dimethylbut-1-ynyl)-3-[(4-methylbenzoyl)-(2-morpholino-2-oxo-ethyl)amino]thiophene-2-carboxylic acid]
[1]; [4]
  IC50: 100 to 1000 nM
[2]
  CC50 at 72 h: > 100000 nM

## COCCN(C)C(=O)C[C@H](C)N(c1cc(C#CC(C)(C)C)sc1C(=O)O)C(=O)[C@H]1CC[C@H](C)CC1 [Compound 114, 5-(3,3-Dimethylbut-1-ynyl)-3-[[(1S)-3-[2-methoxyethyl(methyl)amino]-1-methyl-3-oxo-propyl]-(trans-4-methylcyclohexanecarbonyl)amino]thiophene-2-carboxylic acid]
[1]; [3]
  IC50: < 100 nM
[2]
  CC50 at 72 h: > 100000 nM

## CC(C)NC(=O)CN(c1cc(C#CC(C)(C)C)sc1C(=O)O)C(=O)[C@H]1CC[C@H](C)CC1 [Compound 73, 5-(3,3-dimethylbut-1-ynyl)-3-[[2-(isopropylamino)-2-oxo-ethyl]-(trans-4-methylcyclohexanecarbonyl)amino]thiophene-2-carboxylic acid]
[1]; [3]
  IC50: < 100 nM
[2]
  CC50 at 72 h: > 100000 nM

## COC[C@H](C(=O)N(C)C)N(c1cc(C#CC(C)(C)C)sc1C(=O)O)C(=O)[C@H]1CC[C@H](C)CC1 [Compound 22, 3-[[(1R)-2-(dimethylamino)-1-(methoxymethyl)-2-oxo-ethyl]-(trans-4-methylcyclohexanecarbonyl)amino]-5-(3,3-dimethylbut-1-ynyl)thiophene-2-carboxylic acid]
[1]; [3]
  IC50: < 100 nM
[2]
  CC50 at 72 h: > 100000 nM

## CC[C@H](C(=O)N1CCOCC1)N(c1cc(C#CC(C)(C)C)sc1C(=O)O)C(=O)[C@H]1CC[C@H](C)CC1 [Compound 122, 5-(3,3-dimethylbut-1-ynyl)-3-[(trans-4-methylcyclohexanecarbonyl)-[(1R)-1-(morpholine-4-carbonyl)propyl]amino]thiophene-2-carboxylic acid]
[1]; [4]
  IC50: < 100 nM
[2]
  CC50 at 72 h: > 100000 nM

## C[C@@H](C(=O)NC1CCC(O)CC1)N(c1cc(C#CC(C)(C)C)sc1C(=O)O)C(=O)[C@H]1CC[C@H](C)CC1 (stereo partly drawn) [Compound 31, 5-(3,3-Dimethylbut-1-ynyl)-3-[[(1S)-2-[(4-hydroxycyclohexyl)amino]-1-methyl-2-oxo-ethyl]-(trans-4-methylcyclohexanecarbonyl)amino]thiophene-2-carboxylic acid]
[1]; [3]
  IC50: < 100 nM
[2]
  CC50 at 72 h: > 100000 nM

## CN(C)C(=O)[C@H](CO)N(c1cc(C#CC(C)(C)C)sc1C(=O)O)C(=O)[C@H]1CC[C@H](C)CC1 [Compound 34, 3-[[(1S)-2-(dimethylamino)-1-(hydroxymethyl)-2-oxo-ethyl]-(trans-4-methylcyclohexanecarbonyl)amino]-5-(3,3-dimethylbut-1-ynyl)thiophene-2-carboxylic acid]
[1]; [3]
  IC50: < 100 nM
[2]
  CC50 at 72 h: > 100000 nM
